How the values were obtained:
[1] = system: beet armyworm (BAW; Spodoptera exigua: Lepidoptera); experiment: 128-well diet tray assay on beet armyworm (BAW 50); format: in vivo; conditions: 128-well diet tray assay, second instar BAW larvae, mortality class
Protocol: (§1) Bioassays on beet armyworm (BAW; Spodoptera exigua: Lepidoptera) were conducted using either a 96-well microtiter plate-based high throughput (HTS) bioassay or a 128-well diet tray assay. The HTS assay is a based on a modification of Lewer et al. J. Nat. Prod. 2006, 69, 1506. BAW eggs of were placed on top of artificial diet (100 μl) in each well of 96-well microtiter plate. The diet was pretreated with test compounds (12 μg dissolved in 30 μL of DMSO-acetone-water mixture) layered on top of the diet using a liquid handling system and then allowed to dry for several hours. Infested plates were then covered with a layer of sterile cotton batting and the plate lid, and then held in the dark at 29° C. Mortality was recoded at 6 d post-treatment. Each plate had six replicates. The percent mortality was calculated from the average of the six replicates. In the case of the 128-well diet assay, three to five second instar BAW larvae were placed in each well (3 mL) of the diet tray that had been previously filled with 1 mL of artificial diet to which 50 μg/cm^2 of the test compound (dissolved in 50 μL of 90:10 acetone-water mixture) had been applied (to each of eight wells) and then allowed to dry. Trays were covered with a clear self-adhesive cover, and held at 25° C., 14:10 light-dark for six days. Percent mortality was recorded for the larvae in each well; activity in the eight wells was then averaged. In Table 7, under the BAW HTS or BAW 50 heading, an “A” means that the compound was tested and at least 50 percent mortality was observed whereas, “B” means that either (1) the compound was tested and less than 50 percent mortality was observed or (2) the compound was not tested.

[2] = system: beet armyworm (BAW; Spodoptera exigua: Lepidoptera); experiment: 96-well microtiter plate-based high throughput (HTS) diet bioassay on beet armyworm (BAW HTS); format: in vivo; conditions: BAW eggs, 12 μg test compound per well, mortality at 6 d post-treatment, mortality class
Protocol: as §1

[3] = 50 μg/cm^2 of test compound on diet
[4] = 96-well microtiter plate HTS diet assay

SMILES | BAW 50 ug/cm2 [1, 3] | BAW HTS ([2]; 96-well HTS diet bioassay) | BAW HTS [2, 4] | BAW 50 ug/cm2 ([1]; 50 μg/cm2 of test compound on diet) | pest or weed control at 50 µg/cm2, 50 µg/cm2 ([1]; Spodoptera exigua, 144 h, 50 μg/cm^2 of test compound on diet, read-out: BAW 50 ug/cm2) | pest or weed control at 12 µg/well, 12 µg/well ([2]; Spodoptera exigua, 144 h, 96-well microtiter plate HTS diet assay, read-out: BAW HTS)
COC1C(C)OC(ON=Cc2ccc(-c3ccn(-c4ccc(OC(F)(F)F)cc4)n3)cc2)C(OC)C1OC (stereo not shown) [Compound 12] | A (the compound was tested and at least 50 percent mortality was observed) | B (either (1) the compound was tested and less than 50 percent mortality was observed or (2) the compound was not tested) | B (either (1) the compound was tested and less than 50 percent mortality was observed or (2) the compound was not tested) |  |  | 
COC1C(C)OC(ON=Cc2ccc(C3=NN(c4ccc(OC(F)(F)F)cc4)CC3)cc2)C(OC)C1OC (stereo not shown) [Compound 15] | A (the compound was tested and at least 50 percent mortality was observed) | B (either (1) the compound was tested and less than 50 percent mortality was observed or (2) the compound was not tested) | B (either (1) the compound was tested and less than 50 percent mortality was observed or (2) the compound was not tested) |  |  | 
COC1C(C)OC(ON=Cc2ccc(-n3cnc(-c4ccc(Br)cc4)c3)cc2)C(OC)C1OC (stereo not shown) [Compound 16] | B (either (1) the compound was tested and less than 50 percent mortality was observed or (2) the compound was not tested) | A (the compound was tested and at least 50 percent mortality was observed) | A (the compound was tested and at least 50 percent mortality was observed) |  |  | 
COC1C(C)OC(ON=Cc2ccc(-c3cn(-c4cccc(Cl)c4C#N)cn3)cc2)C(OC)C1OC (stereo not shown) [Compound 17] | B (either (1) the compound was tested and less than 50 percent mortality was observed or (2) the compound was not tested) | A (the compound was tested and at least 50 percent mortality was observed) | A (the compound was tested and at least 50 percent mortality was observed) |  |  | 
COC1C(C)OC(ON=Cc2ccccc2-c2cn(-c3ccc(OC(F)(F)F)cc3)cn2)C(OC)C1OC (stereo not shown) [Compound 19] | B (either (1) the compound was tested and less than 50 percent mortality was observed or (2) the compound was not tested) | B (either (1) the compound was tested and less than 50 percent mortality was observed or (2) the compound was not tested) | B (either (1) the compound was tested and less than 50 percent mortality was observed or (2) the compound was not tested) |  |  | 
COC1C(C)OC(ON=Cc2c(F)ccc(-c3cn(-c4ccc(OC(F)(F)F)cc4)cn3)c2F)C(OC)C1OC (stereo not shown) [Compound 21] | B (either (1) the compound was tested and less than 50 percent mortality was observed or (2) the compound was not tested) | A (the compound was tested and at least 50 percent mortality was observed) | A (the compound was tested and at least 50 percent mortality was observed) |  |  | 
COC1C(C)OC(ON=Cc2ccc(-c3cn(-c4cccc(F)n4)cn3)cc2)C(OC)C1OC (stereo not shown) [Compound 22] | B (either (1) the compound was tested and less than 50 percent mortality was observed or (2) the compound was not tested) | B (either (1) the compound was tested and less than 50 percent mortality was observed or (2) the compound was not tested) | B (either (1) the compound was tested and less than 50 percent mortality was observed or (2) the compound was not tested) |  |  | 
COC1C(C)OC(ON=Cc2ccc(-c3cn(-c4cc(I)ccn4)cn3)cc2)C(OC)C1OC (stereo not shown) [Compound 23] | B (either (1) the compound was tested and less than 50 percent mortality was observed or (2) the compound was not tested) | B (either (1) the compound was tested and less than 50 percent mortality was observed or (2) the compound was not tested) | B (either (1) the compound was tested and less than 50 percent mortality was observed or (2) the compound was not tested) |  |  | 
COC1C(C)OC(ON=Cc2ccc(-c3cn(-c4cc(F)cc(F)c4)cn3)cc2)C(OC)C1OC (stereo not shown) [Compound 24] | B (either (1) the compound was tested and less than 50 percent mortality was observed or (2) the compound was not tested) | A (the compound was tested and at least 50 percent mortality was observed) | A (the compound was tested and at least 50 percent mortality was observed) |  |  | 
COc1ccc(-c2cn(-c3ccc(OC(F)(F)F)cc3)cn2)cc1C=NOC1OC(C)C(OC)C(OC)C1OC (stereo not shown) [Compound 25] | B (either (1) the compound was tested and less than 50 percent mortality was observed or (2) the compound was not tested) | B (either (1) the compound was tested and less than 50 percent mortality was observed or (2) the compound was not tested) | B (either (1) the compound was tested and less than 50 percent mortality was observed or (2) the compound was not tested) |  |  | 
CO[C@@H]1[C@@H](OC)[C@H](C)O[C@@H](O/N=C/c2ccc(-c3cn(-c4ccc(OC(F)(F)F)cc4)cn3)cc2)[C@@H]1OC [Compound 26, 4-[1-(4-Trifluoromethoxyphenyl)-1H-imidazol-4-yl]-benzaldehyde O-((2S,3R,4R,5S,6S)-3,4,5-trimethoxy-6-methyl-tetrahydropyran-2-yl)-oxime] |  | A (the compound was tested and at least 50 percent mortality was observed) |  | A (the compound was tested and at least 50 percent mortality was observed) | > 50% | > 50%
CCCc1ccc(-n2cnc(-c3ccc(C=NOC4OC(C)C(OC)C(OC)C4OC)cc3)c2)cc1 (stereo not shown) [Compound 27] | A (the compound was tested and at least 50 percent mortality was observed) | A (the compound was tested and at least 50 percent mortality was observed) | A (the compound was tested and at least 50 percent mortality was observed) |  |  | 
CCCc1ccc(-n2cnc(-c3ccc(/C=N/O[C@@H]4O[C@@H](C)[C@H](OC)[C@@H](OCC)[C@H]4OC)cc3)c2)cc1 [Compound 29] | A (the compound was tested and at least 50 percent mortality was observed) | B (either (1) the compound was tested and less than 50 percent mortality was observed or (2) the compound was not tested) | B (either (1) the compound was tested and less than 50 percent mortality was observed or (2) the compound was not tested) |  |  | 
COC1C(C)OC(ON=Cc2ccc(-c3cn(-c4ccc(OC(F)(F)F)cc4)cn3)cc2)C(OC)C1OC (stereo not shown) [Compound 30] | A (the compound was tested and at least 50 percent mortality was observed) | A (the compound was tested and at least 50 percent mortality was observed) | A (the compound was tested and at least 50 percent mortality was observed) |  |  | 
COC1C(C)OC(ON=Cc2ccc(-c3cn(-c4ccc(C(F)(F)F)cn4)cn3)cc2)C(OC)C1OC (stereo not shown) [Compound 32] | A (the compound was tested and at least 50 percent mortality was observed) | A (the compound was tested and at least 50 percent mortality was observed) | A (the compound was tested and at least 50 percent mortality was observed) |  |  | 

From US8178658B2 (Dow AgroSciences, LLC, priority 2008, dated 2012)
